Key:
[1] = system: A549 human lung cancer cells; experiment: CCK-8 proliferation inhibition, A549; assay type: cell-based; conditions: CCK-8 method; for inhibition at 10 µM / inhibition at 100 µM: Homo sapiens, A549
Protocol: (§1) Detecting the inhibition rate of the compound concentrations of 100 μM and 10 μM to Hut78 T-cell Leukemia cell, Jurkat E6-1 human T-cell lymphoma, PANC-1 human pancreatic cancer cells, A549 human lung cancer cells, K562 human chronic myeloid leukemia cells, Hep3B2.1-7 human liver cancer cells, MDA-MB-435s human breast cancer cells, Colo320 human rectal cancer cells and PC-3 human prostate cancer using CCK-8 method.

[2] = system: PANC-1 human pancreatic cancer cells; experiment: CCK-8 proliferation inhibition, PANC-1; assay type: cell-based; conditions: for inhibition at 10 µM / inhibition at 100 µM: Homo sapiens; for inhibition at 10 µM: PANC-1, 10 μM; for inhibition at 100 µM: PANC-1, 100 μM
Protocol: as §1

[3] = system: Colo320 human rectal cancer cells; experiment: CCK-8 proliferation inhibition, Colo320; assay type: cell-based; conditions: CCK-8 method; for inhibition at 10 µM / inhibition at 100 µM: Homo sapiens, COLO 320
Protocol: as §1

[4] = system: Hut78 T-cell Leukemia cell; experiment: CCK-8 proliferation inhibition, Hut78; assay type: cell-based; conditions: for inhibition at 10 µM / inhibition at 100 µM: Homo sapiens, read-out: Hut-78 (inhibition %); for inhibition at 10 µM: HuT78, 10 μM; for inhibition at 100 µM: HuT78, 100 μM
Protocol: as §1

[5] = system: MDA-MB-435s human breast cancer cells; experiment: CCK-8 proliferation inhibition, MDA-MB-435s; assay type: cell-based; conditions: CCK-8 method; for inhibition at 10 µM / inhibition at 100 µM: Homo sapiens, MDA-MB-435S
Protocol: as §1

[6] = system: Jurkat E6-1 human T-cell lymphoma; experiment: CCK-8 proliferation inhibition, Jurkat E6-1; assay type: cell-based; conditions: for inhibition at 10 µM / inhibition at 100 µM: Homo sapiens; for inhibition at 10 µM: Jurkat E6.1, 10 μM; for inhibition at 100 µM: Jurkat E6.1, 100 μM
Protocol: as §1

histone deacetylase = experiment: in vitro inhibition of histone deacetylase by HDAC inhibitor screening kit (Biovision K340-100); assay type: biochemical
Protocol: An assay for determining the in vitro inhibition activity of the compound on histone deacetylase is conducted according to the specification of HDAC inhibitor screeing kid (Biovision Company/Catalog #K340-100). […]

[7] = system: K562 human chronic myeloid leukemia cells; experiment: CCK-8 proliferation inhibition, K562; assay type: cell-based; conditions: for inhibition at 10 µM / inhibition at 100 µM: Homo sapiens; for inhibition at 10 µM: K562, 10 μM; for inhibition at 100 µM: K562, 100 μM
Protocol: as §1

[8] = system: Hep3B2.1-7 human liver cancer cells; experiment: CCK-8 proliferation inhibition, Hep3B2.1-7; assay type: cell-based; conditions: CCK-8 method; for inhibition at 10 µM / inhibition at 100 µM: Homo sapiens, Hep3B
Protocol: as §1

[9] = system: PC-3 human prostate cancer; experiment: CCK-8 proliferation inhibition, PC-3; assay type: cell-based; conditions: CCK-8 method; for inhibition at 10 µM / inhibition at 100 µM: Homo sapiens
Protocol: as §1

Structure (SMILES) | Inhibition rate(%) (histone deacetylase; 3.91 μM) | Inhibition rate(%) (histone deacetylase; 62.5 μM) | Inhibition rate(%) (histone deacetylase; 2 mM) | inhibition at 10 µM ([1]; compound concentration 10 μM) [%] | inhibition at 100 µM ([1]; compound concentration 100 μM) [%] | inhibition at 10 µM [2] [%] | inhibition at 100 µM [2] [%] | inhibition at 10 µM ([3]; compound concentration 10 μM) [%] | inhibition at 100 µM ([3]; compound concentration 100 μM) [%] | inhibition at 10 µM [4] [%] | inhibition at 100 µM [4] [%] | inhibition at 10 µM ([5]; compound concentration 10 μM) [%] | inhibition at 100 µM ([5]; compound concentration 100 μM) [%] | inhibition at 10 µM [6] [%] | inhibition at 100 µM [6] [%] | inhibition at 10 µM [7] [%] | inhibition at 100 µM [7] [%] | inhibition at 10 µM ([8]; compound concentration 10 μM) [%] | inhibition at 100 µM ([8]; compound concentration 100 μM) [%] | inhibition at 10 µM ([9]; compound concentration 10 μM) [%] | also measured
Nc1cnccc1NC(=O)c1ccc(CNC(=O)/C=C/c2ccccc2)cc1 [V-26] | 24.8 | 56.8 | 58.6 | 9.5 | 79.1 | 0.9 | 23.9 | 7.7 | 56.3 | 39.9 | 82.3 | 22.7 | 81.4 | 76.6 | 95.7 | 58.5 | 87.5 | 13.8 | 75.1 | 45.2 | inhibition at 100 µM ([9]; compound concentration 100 μM): 72.2%
COc1ccc(/C=C/C(=O)NCc2ccc(C(=O)Nc3ccncc3N)cc2)cc1 [V-30] | 28.2 | 56.9 | 67.5 | 21.8 | 69.9 | 12.3 | 39.4 | 5.4 | 40.8 | 42.3 | 71.8 | 18 | 81.4 | 83.1 | 88.2 | 60.9 | 83.4 | 38.3 | 69.2 | 44.6 | inhibition at 100 µM ([9]; compound concentration 100 μM): 69%
COc1cc(CCC(=O)NCc2ccc(C(=O)Nc3cccnc3N)cc2)cc(OC)c1OC [V-54, N-(2-amino-3-pyridyl)-4-[3-(3,4,5-methoxyphenyl)propionylaminomethyl]benzamide] | 2.2 | 3.1 | 42.5 | – | – | – | – | – | – | – | – | – | – | – | – | – | – | – | – | – | A549 (inhibition %) ([1]; compound concentration 10 μM): 7.5%; A549 (inhibition %) ([1]; compound concentration 100 μM): 12.8%; PANC-1 (inhibition %) ([2]; 10 μM): 15.6%; PANC-1 (inhibition %) ([2]; 100 μM): 11.7%; Colo320 (inhibition %) ([3]; compound concentration 10 μM): 6.8%; Colo320 (inhibition %) ([3]; compound concentration 100 μM): 2.7%; Hut-78 (inhibition %) ([4]; 10 μM): 0.9%; Hut-78 (inhibition %) ([4]; 100 μM): 10.6%; 435s(inhibition %) ([5]; compound concentration 10 μM): 14.6%; 435s(inhibition %) ([5]; compound concentration 100 μM): 14.0%; Jurkat E6-1 (inhibition %) ([6]; 10 μM): 2.9%; Jurkat E6-1 (inhibition %) ([6]; 100 μM): 5.8%; K562 (inhibition %) ([7]; 10 μM): 12.7%; K562 (inhibition %) ([7]; 100 μM): 13.1%; Hep3B (inhibition %) ([8]; compound concentration 10 μM): 4.2%; Hep3B (inhibition %) ([8]; compound concentration 100 μM): 4.7%; PC-3 (inhibition %) ([9]; compound concentration 10 μM): 5.6%; PC-3 (inhibition %) ([9]; compound concentration 100 μM): 5.9%
COc1cccc(/C=C/C(=O)NCc2ccc(C(=O)Nc3cccnc3N)cc2)c1 [V-91, N-(2-amino-3-pyridyl)-4-[(3-methoxycinnamoyl)aminomethyl]benzamide] | 10.1 | 47.8 | 81.8 | 17.7 | 48.9 | 2.4 | 8.5 | 9.6 | 27.6 | 26.8 | 68.3 | 25.9 | 71.2 | 23.7 | 89.9 | 37.4 | 81.6 | 7.8 | 63.6 | 7.9 | inhibition at 100 µM ([9]; compound concentration 100 μM): 24.2%

Continued, in another order:

Inhibition rate(%) (histone deacetylase; 3.91 μM) | Inhibition rate(%) (histone deacetylase; 62.5 μM) | Inhibition rate(%) (histone deacetylase; 2 mM) | Structure (SMILES) | inhibition at 10 µM ([1]; compound concentration 10 μM) [%] | inhibition at 100 µM ([1]; compound concentration 100 μM) [%] | inhibition at 10 µM [2] [%] | inhibition at 100 µM [2] [%] | inhibition at 10 µM ([3]; compound concentration 10 μM) [%] | inhibition at 100 µM ([3]; compound concentration 100 μM) [%] | inhibition at 10 µM [4] [%] | inhibition at 100 µM [4] [%] | inhibition at 10 µM ([5]; compound concentration 10 μM) [%] | inhibition at 100 µM ([5]; compound concentration 100 μM) [%] | inhibition at 10 µM [6] [%] | inhibition at 100 µM [6] [%] | inhibition at 10 µM [7] [%] | inhibition at 100 µM [7] [%] | inhibition at 10 µM ([8]; compound concentration 10 μM) [%] | inhibition at 100 µM ([8]; compound concentration 100 μM) [%] | inhibition at 10 µM ([9]; compound concentration 10 μM) [%] | also measured
1.9 | 7.8 | 50.0 | COc1cc(COC(=O)NCc2ccc(C(=O)Nc3cccnc3N)cc2)cc(OC)c1OC [V-13, N-(2-amino-3-pyridyl)-4-[(3,4,5-trimethoxybenzyloxyacyl)aminomethyl]benzamide] | 24.6 | 42.3 | 22.3 | 26.4 | 4.4 | 4.2 | 10.8 | 24 | -11.9 | 11.8 | 0.9 | 22.8 | -2.8 | 30.3 | 27 | 26.2 | 5.1 | inhibition at 100 µM ([9]; compound concentration 100 μM): 19.3%
12.0 | 32.9 | 77.2 | COc1cc(COC(=O)NCc2ccc(C(=O)Nc3ccncc3N)cc2)cc(OC)c1OC [V-14] | -4.4 | 40.1 | 13 | 19 | 6.4 | 23.3 | 8.1 | 47.5 | 9.4 | 82.9 | 25.3 | 72.8 | 45 | 62.1 | 3.7 | 31.3 | 13.7 | inhibition at 100 µM ([9]; compound concentration 100 μM): 57.4%
30.4 | 56.8 | 66.0 | Cc1ccc(/C=C/C(=O)NCc2ccc(C(=O)Nc3ccncc3N)cc2)cc1 [V-28] | 17.1 | 96.4 | -1.7 | 52 | 6.5 | 58.8 | 44.4 | 85.7 | 25.2 | 88.8 | 84.8 | 89.4 | 64.3 | 92.9 | 23.5 | 60 | 48.1 | inhibition at 100 µM ([9]; compound concentration 100 μM): 75.5%
24.2 | 55.2 | 76.1 | Nc1cnccc1NC(=O)c1ccc(CNC(=O)/C=C/c2ccc([N+](=O)[O-])cc2)cc1 [V-38] | 4.2 | 63.7 | 5.1 | 40.8 | -0.2 | 44.4 | 39.6 | 86.9 | 16.6 | 73.6 | 76.9 | 95.1 | 54 | 88.2 | 11.7 | 63.5 | 8.7 | inhibition at 100 µM ([9]; compound concentration 100 μM): 52.6%
11.4 | 40.2 | 82.4 | Nc1ncccc1NC(=O)c1ccc(CNC(=O)/C=C/c2cccnc2)cc1 [V-42, N-(2-amino-3-pyridyl)-4-[(3-pyridylacryloyl)aminomethyl]benzamide] | 56.3 | 88.8 | 20.8 | 50.6 | 26.3 | 77 | 28.2 | 55.8 | 24.2 | 89.2 | 62.4 | 93.7 | 27.9 | 67.7 | 21.2 | 58.8 | 81.4 | inhibition at 100 µM ([9]; compound concentration 100 μM): 89.4%

From patent US8889876B2, “Histone deacetylase inhibitors and uses thereof” (Jiangsu Hengyi Pharmaceutical Co., Ltd., priority 2008, dated 2014)
